Results published in patent US5292733A, “Cephalosporin compounds” (Lucky Limited, priority 1991, dated 1994).
≈ marks a conversion by molar mass, not a printed value.

Tests used:
Assay in all cases: Antibacterial activity MIC, two-fold agar dilution
Format in all cases: cell-based
[1] = system: Providencia rettgeri ATCC 9250; conditions: ATCC9250, Muller-Hinton agar, 37° C., 20 hours
Procedure: (§1) These MIC values were taken by employing a two-fold dilution method: that is, two-fold serial dilutions of each of the test compounds were made and dispersed in a Muller-Hinton agar medium; 2 μl of the standard test strain which had the 10^7 CFU(Colony Forming Unit) per ml was inoculated on the medium; and these were incubated at 37° C. for 20 hours. The results of the MIC tests are shown Table 1.

[2] = system: Salmonella typhimurium ATCC 14028; conditions: Salmonella enterica; Salmonella typhimurium ATCC 14028; Muller-Hinton agar, 37° C., 20 hours; read-out: Antibacterial Activity MIC
Procedure: as §1

[3] = system: Staphylococcus epidermidis ATCC 12228; conditions: ATCC12228; Staphylococcus epidermidis ATCC 12228; Muller-Hinton agar, 37° C., 20 hours; read-out: Antibacterial Activity MIC
Procedure: as §1

[4] = system: Proteus vulgaris ATCC 6059; conditions: ATCC6059; Proteus vulgaris ATCC 6059; Muller-Hinton agar, 37° C., 20 hours; read-out: Antibacterial Activity MIC
Procedure: as §1

[5] = system: Morganella morganii ATCC 8076h; conditions: ATCC8076H, Muller-Hinton agar, 37° C., 20 hours
Procedure: as §1

[6] = system: Staphylococcus aureus ATCC 10537; conditions: ATCC10537; Staphylococcus aureus ATCC 10537; Muller-Hinton agar, 37° C., 20 hours; read-out: Antibacterial Activity MIC
Procedure: as §1

[7] = system: Pseudomonas aeruginosa ATCC 10145; conditions: ATCC10145; Pseudomonas aeruginosa ATCC 10145; Muller-Hinton agar, 37° C., 20 hours; read-out: Antibacterial Activity MIC
Procedure: as §1

[8] = system: Pseudomonas aeruginosa ATCC 27853; conditions: ATCC27853; Pseudomonas aeruginosa ATCC 27853; Muller-Hinton agar, 37° C., 20 hours; read-out: Antibacterial Activity MIC
Procedure: as §1

[9] = system: Citrobacter freundii ATCC 8090; conditions: ATCC8090; Citrobacter freundii ATCC 8090; Muller-Hinton agar, 37° C., 20 hours; read-out: Antibacterial Activity MIC
Procedure: as §1

[10] = system: Acinetobacter calcoaceticus ATCC 15473; conditions: ATCC15473; Acinetobacter calcoaceticus ATCC 15473; Muller-Hinton agar, 37° C., 20 hours; read-out: Antibacterial Activity MIC
Procedure: as §1

[11] = system: Proteus mirabilis ATCC 25933; conditions: ATCC25933; Proteus mirabilis ATCC 25933; Muller-Hinton agar, 37° C., 20 hours; read-out: Antibacterial Activity MIC
Procedure: as §1

[12] = system: Shigella flexneri ATCC 11836; conditions: ATCC11836, Muller-Hinton agar, 37° C., 20 hours
Procedure: as §1

[13] = system: Enterobacter aerogenes ATCC 29751; conditions: Klebsiella aerogenes, ATCC29751; Enterobacter aerogenes ATCC 29751; Muller-Hinton agar, 37° C., 20 hours; read-out: Antibacterial Activity MIC
Procedure: as §1

[14] = system: Enterobacter cloacae ATCC 27508; conditions: ATCC27508; Enterobacter cloacae ATCC 27508; Muller-Hinton agar, 37° C., 20 hours; read-out: Antibacterial Activity MIC
Procedure: as §1

[15] = system: Serratia marcescens ATCC 27117; conditions: ATCC27117; Serratia marcescens ATCC 27117; Muller-Hinton agar, 37° C., 20 hours; read-out: Antibacterial Activity MIC
Procedure: as §1

[16] = system: Bacillus cereus ATCC 11778; conditions: ATCC11778; Bacillus cereus ATCC 11778; Muller-Hinton agar, 37° C., 20 hours; read-out: Antibacterial Activity MIC
Procedure: as §1

[17] = system: Staphylococcus aureus ATCC 6538p; conditions: ATCC6538P; Staphylococcus aureus ATCC 6538p; Muller-Hinton agar, 37° C., 20 hours; read-out: Antibacterial Activity MIC
Procedure: as §1

[18] = system: Streptococcus faecalis ATCC 29212; conditions: Enterococcus faecalis, ATCC29212; Streptococcus faecalis ATCC 29212; Muller-Hinton agar, 37° C., 20 hours; read-out: Antibacterial Activity MIC
Procedure: as §1

[19] = system: Micrococcus luteus ATCC 9341; conditions: ATCC9341; Micrococcus luteus ATCC 9341; Muller-Hinton agar, 37° C., 20 hours; read-out: Antibacterial Activity MIC
Procedure: as §1

[20] = system: Klebsiella pneumoniae ATCC 10031; conditions: ATCC10031; Klebsiella pneumoniae ATCC 10031; Muller-Hinton agar, 37° C., 20 hours; read-out: Antibacterial Activity MIC
Procedure: as §1

[21] = system: Bacillus megaterium ATCC 9885; conditions: Priestia megaterium, ATCC9885; Bacillus megaterium ATCC 9885; Muller-Hinton agar, 37° C., 20 hours; read-out: Antibacterial Activity MIC
Procedure: as §1

[22] = system: Pseudomonas aeruginosa ATCC 25619; conditions: ATCC25619; Pseudomonas aeruginosa ATCC 25619; Muller-Hinton agar, 37° C., 20 hours; read-out: Antibacterial Activity MIC
Procedure: as §1

[23] = system: Shigella sonnei ATCC 11060; conditions: ATCC11060, Muller-Hinton agar, 37° C., 20 hours
Procedure: as §1

[24] = system: Escherichia coli ATCC 10536; conditions: ATCC10536, Muller-Hinton agar, 37° C., 20 hours
Procedure: as §1

[25] = system: Escherichia coli ATCC 25922; conditions: ATCC25922, Muller-Hinton agar, 37° C., 20 hours
Procedure: as §1

Row | SMILES | MIC [1] | MIC [2] | MIC [3] | MIC [4] | MIC [5] | MIC [6] | MIC [7] | MIC [8] | MIC [9] | MIC [10] | MIC [11] | MIC [12] | MIC [13] | MIC [14] | MIC [15] | MIC [16] | MIC [17] | MIC [18] | MIC [19] | MIC [20] | also measured
1 | CO/N=C(\C(=O)N[C@@H]1C(=O)N2C(C(=O)[O-])=C(CSc3cc(N)[n+](C)c(N)n3)CS[C@H]12)c1csc(N)n1 [Compound I-21, (6R,7R)-7-[(Z)-2-(2-aminothiazol-4-yl)-2-(methoxyimino)acetamido]-3-(2,6-diamino-1-methylpyrimidinium-4-yl)thiomethyl-3-cephem-4-carboxylate] | ≤ 0.008 µg/mL | 0.13 µg/mL (≈ 0.236 µM) | 0.25 µg/mL (≈ 0.453 µM) | 0.5 µg/mL (≈ 0.906 µM) | ≤ 0.008 µg/mL | 0.5 µg/mL (≈ 0.906 µM) | 16 µg/mL (≈ 29 µM) | 2 µg/mL (≈ 3.63 µM) | 0.031 µg/mL (≈ 0.0562 µM) | 8 µg/mL (≈ 14.5 µM) | 0.5 µg/mL (≈ 0.906 µM) | 0.016 µg/mL (≈ 0.029 µM) | 0.25 µg/mL (≈ 0.453 µM) | ≤ 0.008 µg/mL | 0.25 µg/mL (≈ 0.453 µM) | 128 µg/mL (≈ 232 µM) | 0.5 µg/mL (≈ 0.906 µM) | 32 µg/mL (≈ 58 µM) | 0.063 µg/mL (≈ 0.114 µM) | ≤ 0.008 µg/mL | MIC [21]: 0.13 µg/mL (≈ 0.236 µM); MIC [22]: 1 µg/mL (≈ 1.81 µM); MIC [23]: 0.13 µg/mL (≈ 0.236 µM); MIC [24]: 0.063 µg/mL (≈ 0.114 µM); MIC [25]: 0.063 µg/mL (≈ 0.114 µM)
2 | CC[n+]1c(N)cc(SCC2=C(C(=O)[O-])N3C(=O)[C@@H](NC(=O)/C(=N\OC(C)(C)C(=O)O)c4csc(N)n4)[C@H]3SC2)nc1N [Compound I-13, (6R,7R)-7-[(Z)-2-(2-aminothiazol-4-yl)-2-(carboxyprop-2-oxyimino)acetamido]-3-(2,6-diamino-1-ethylpyrimidinium-4-yl)thiomethyl-3-cephem-4-carboxylate] | ≤ 0.008 µg/mL | 0.25 µg/mL (≈ 0.392 µM) | 2 µg/mL (≈ 3.14 µM) | 0.25 µg/mL (≈ 0.392 µM) | ≤ 0.008 µg/mL | 4 µg/mL (≈ 6.27 µM) | 2 µg/mL (≈ 3.14 µM) | 1 µg/mL (≈ 1.57 µM) | 0.13 µg/mL (≈ 0.204 µM) | 8 µg/mL (≈ 12.5 µM) | 0.13 µg/mL (≈ 0.204 µM) | 0.063 µg/mL (≈ 0.0988 µM) | 2 µg/mL (≈ 3.14 µM) | 0.031 µg/mL (≈ 0.0486 µM) | 0.5 µg/mL (≈ 0.784 µM) | 128 µg/mL (≈ 201 µM) | 8 µg/mL (≈ 12.5 µM) | > 128 µg/mL | 0.5 µg/mL (≈ 0.784 µM) | 0.063 µg/mL (≈ 0.0988 µM) | MIC [21]: 0.25 µg/mL (≈ 0.392 µM); MIC [22]: 1 µg/mL (≈ 1.57 µM); MIC [23]: 0.25 µg/mL (≈ 0.392 µM); MIC [24]: 0.13 µg/mL (≈ 0.204 µM); MIC [25]: 0.13 µg/mL (≈ 0.204 µM)
3 | C#CCO/N=C(\C(=O)N[C@@H]1C(=O)N2C(C(=O)[O-])=C(CSc3cc(N)[n+](CC)c(N)n3)CS[C@H]12)c1csc(N)n1 [Compound I-15, (6R,7R)-7-[(Z)-2-(2-aminothiazol-4-yl)-2-(2-propyn-1-oxyimino)acetamido]-3-(2,6-diamino-1-ethylpyrimidinium-4-yl)thiomethyl-3-cephem-4-carboxylate] | ≤ 0.008 µg/mL | 0.5 µg/mL (≈ 0.848 µM) | 0.25 µg/mL (≈ 0.424 µM) | 1 µg/mL (≈ 1.7 µM) | 0.016 µg/mL (≈ 0.0271 µM) | 0.5 µg/mL (≈ 0.848 µM) | 8 µg/mL (≈ 13.6 µM) | 4 µg/mL (≈ 6.78 µM) | 0.25 µg/mL (≈ 0.424 µM) | 8 µg/mL (≈ 13.6 µM) | 0.5 µg/mL (≈ 0.848 µM) | 0.13 µg/mL (≈ 0.22 µM) | 1 µg/mL (≈ 1.7 µM) | 0.031 µg/mL (≈ 0.0526 µM) | 0.5 µg/mL (≈ 0.848 µM) | 32 µg/mL (≈ 54.3 µM) | 0.5 µg/mL (≈ 0.848 µM) | 16 µg/mL (≈ 27.1 µM) | 0.031 µg/mL (≈ 0.0526 µM) | 0.016 µg/mL (≈ 0.0271 µM) | MIC [21]: 0.25 µg/mL (≈ 0.424 µM); MIC [22]: 1 µg/mL (≈ 1.7 µM); MIC [23]: 0.5 µg/mL (≈ 0.848 µM); MIC [24]: 0.25 µg/mL (≈ 0.424 µM); MIC [25]: 0.5 µg/mL (≈ 0.848 µM)
